Literature values, collected in patent US20140242195A1, “AUTOMOTIVE SURFACE CONDITIONING SYSTEM” (American Covers, Inc., priority 2013, published 2014).

Conditions: component of the composition

Vapor Pressure (mmHg)	Structure (SMILES)
0.07 mmHg	CCOCCOCCO [CARBITOL, diethylene glycol monoethyl ether]
0.003 mmHg	OCC(O)CO [Glycerin]
